According to patent US9346815B2, “5-chloro-2-difluoromethoxyphenyl pyrazolopyrimidine compounds, compositions and methods of use thereof” (Genentech, Inc., priority 2014, dated 2016):

Experiments:
[1] = biological target: isolated recombinant JAK1 kinase domain (Homo sapiens (Human), UniProt P23458); assay: JAK1 enzyme assay (Caliper LabChip, peptide phosphorylation); format: biochemical; settings: isolated recombinant JAK1 kinase domain, 25 μM ATP
[2] = Clearance assay: mouse intravenous (IV) clearance; format: in vivo; settings: female BALB/c mice; for IV Mouse CL, % of liver blood flow: clearance as % of mouse liver blood flow; for clearance: mouse, read-out: IV Mouse CL
Source text: In certain instances high systemic clearance of a drug substance may be of benefit. For example, in the treatment of pulmonary diseases it may be beneficial to have high drug concentrations in the lung, with lower concentrations in the bloodstream or peripheral organs. In such cases, it may be advantageous to administer a drug substance with high systemic clearance via the inhaled delivery route. This approach may maximize pharmacologic activity of the drug substance in the lung while minimizing the possibility of on-target toxicity elsewhere in the body. The functional groups appended to the 5-chloro-2-difluoromethoxyphenyl pyrazolopyrimidine scaffold affect systemic clearance.
Female BALB/c mice were obtained from Charles River Labs (Hollister, Calif. USA). Twelve animals were given a single IV dose of 1 mg/kg of compounds via the tail vein. A representative dose solution was prepared as follows: the compound was dissolved in a mixture of 5% dimethylsulfoxide (DMSO), 35% polyethylene glycol (PEG 400), and 60% water (v/v/v), respectively, and administered at a dosing volume of 5 mL/kg. Mice weighed approximately 20-25 g at the start of the study. After intravenous administration of compounds, each animal was bled twice via retro-orbital and cardiac puncture. PK time points were collected at 2 min, 5 min, 15 min, 30 min, 1 hr, 2 hr, 4 hr, and 8 hr post-dose. Plasma samples were stored at approximately −80° C. until thawed for LC-MS/MS analysis. PK data analysis was performed on mean plasma concentration-time data and PK parameters were determined by non compartmental methods using WinNonlin® Enterprise, version 5.2.1 (Pharsight Corporation; Mountain View, Calif.).

[3] = biological target: isolated recombinant JAK2 kinase domain (Homo sapiens (Human), UniProt O60674); assay: JAK2 enzyme assay (Caliper LabChip, peptide phosphorylation); format: biochemical; settings: 25 μM ATP
[4] = test system: JAK1-dependent STAT6 phosphorylation downstream of IL-13 stimulation in TF-1 human erythroleukemia cells; assay: JAK1 pathway assay in TF-1 cells (IL-13-pSTAT6, MSD); format: cell-based; settings: Homo sapiens, TF-1, TF-1 cells, read-out: IL13-pSTAT6 EC50_TF-1
How it was run: (§1)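 Compound preincubation lasted 1 hr for BEAS-2B cells in complete growth medium and 30 min for GM-CSF-starved TF-1 cells in serum-free medium. EC50 values were determined.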

[5] = test system: JAK1-dependent STAT6 phosphorylation downstream of IL-13 stimulation in BEAS-2B human bronchial epithelial cells; assay: JAK1 pathway assay in BEAS-2B cells (IL-13-pSTAT6, MSD); format: cell-based; settings: read-out: IL13-pSTAT6 EC50 (uM)_BEAS-2B
How it was run: as §1

[6] = plasma, single IV dose of 1 mg/kg via the tail vein

Sequence of isolated recombinant JAK2 kinase domain (O60674 849-1124): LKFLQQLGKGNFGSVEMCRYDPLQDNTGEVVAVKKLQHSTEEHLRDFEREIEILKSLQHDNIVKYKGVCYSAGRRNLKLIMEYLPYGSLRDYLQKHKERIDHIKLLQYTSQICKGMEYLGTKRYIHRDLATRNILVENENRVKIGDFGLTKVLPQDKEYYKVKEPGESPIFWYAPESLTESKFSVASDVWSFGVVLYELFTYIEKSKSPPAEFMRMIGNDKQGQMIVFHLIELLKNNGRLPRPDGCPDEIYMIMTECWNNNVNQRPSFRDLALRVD
Sequence of isolated recombinant JAK1 kinase domain (P23458 875-1153): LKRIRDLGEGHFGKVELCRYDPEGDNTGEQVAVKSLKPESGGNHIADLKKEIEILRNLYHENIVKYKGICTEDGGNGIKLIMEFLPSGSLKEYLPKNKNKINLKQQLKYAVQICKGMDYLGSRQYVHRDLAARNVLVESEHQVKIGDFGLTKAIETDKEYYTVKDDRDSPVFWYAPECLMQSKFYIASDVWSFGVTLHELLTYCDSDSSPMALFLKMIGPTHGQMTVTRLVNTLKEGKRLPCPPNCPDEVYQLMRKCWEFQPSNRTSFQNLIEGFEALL

SMILES	Ki [1]	IV Mouse CL, % of liver blood flow ([2]; single IV dose of 1 mg/kg)	clearance [2, 6]	Ki [3]	EC50 [4]	mouse IV clearance as % of mouse liver blood flow ([2]; single IV dose of 1 mg/kg)	mouse intravenous (IV) clearance value ([2]; single IV dose of 1 mg/kg via the tail vein, plasma)	EC50 [5]
CN(CC(F)(F)F)C1CCN(c2nc(-c3cc(Cl)ccc3OC(F)F)c(NC(=O)c3cnn4cccnc34)s2)CC1 [Example 198, N-[4-[5-chloro-2-(difluoromethoxy)phenyl]-2-[4-[methyl(2,2,2-trifluoroethyl)amino]-1-piperidyl]thiazol-5-yl]pyrazolo[1,5-a]pyrimidine-3-carboxamide]	2.72 nM	>100%	326 mL/min/kg	2.17 nM	29.1 nM			
CC(C)(O)Cn1cc(NC(=O)c2cnn3cccnc23)c(-c2cc(Cl)ccc2OC(F)F)n1 [i]						6%	5.3 mL/min/kg	
CC(C)CN1C[C@@H]2CN(C(=O)Cn3cc(NC(=O)c4cnn5cccnc45)c(-c4cc(Cl)ccc4OC(F)F)n3)C[C@@H]2C1 [Example 28, N-[1-[2-[(3aS,6aR)-2-isobutyl-1,3,3a,4,6,6a-hexahydropyrrolo[3,4-c]pyrrol-5-yl]-2-oxo-ethyl]-3-[5-chloro-2-(difluoromethoxy)phenyl]pyrazol-4-yl]pyrazolo[1,5-a]pyrimidine-3-carboxamide]	0.82 nM			0.84 nM	3.5 nM			0.177 µM
O=C(Nc1cn(CC(=O)N2CCN(CCO)CC2)nc1-c1cc(Cl)ccc1OC(F)F)c1cnn2cccnc12 [Example 228, N-[3-[5-chloro-2-(difluoromethoxy)phenyl]-1-[2-[4-(2-hydroxyethyl)piperazin-1-yl]-2-oxo-ethyl]pyrazol-4-yl]pyrazolo[1,5-a]pyrimidine-3-carboxamide]	0.47 nM			0.89 nM	11.1 nM			0.0655 µM
CN(CCCc1ccccc1)C1CCN(C(=O)Cn2cc(NC(=O)c3cnn4cccnc34)c(-c3cc(Cl)ccc3OC(F)F)n2)CC1 [Example 123, N-[3-[5-chloro-2-(difluoromethoxy)phenyl]-1-[2-[4-[methyl(3-phenylpropyl)amino]-1-piperidyl]-2-oxo-ethyl]pyrazol-4-yl]pyrazolo[1,5-a]pyrimidine-3-carboxamide]	2.23 nM			1.63 nM	7.6 nM			0.0487 µM
CCN(Cc1cccnc1)C(=O)Cn1cc(NC(=O)c2cnn3cccnc23)c(-c2cc(Cl)ccc2OC(F)F)n1 [Example 301, N-[3-[5-chloro-2-(difluoromethoxy)phenyl]-1-[2-[ethyl(3-pyridylmethyl)amino]-2-oxo-ethyl]pyrazol-4-yl]pyrazolo[1,5-a]pyrimidine-3-carboxamide]	0.33 nM			0.36 nM	3.4 nM			0.0095 µM
CN[C@@H]1CCC[C@H](n2cc(NC(=O)c3c(N)nn4cccnc34)c(-c3cc(Cl)ccc3OC(F)F)n2)C1 [Example 296, 2-amino-N-[3-[5-chloro-2-(difluoromethoxy)phenyl]-1-[(1S,3R)-3-(methylamino)cyclohexyl]pyrazol-4-yl]pyrazolo[1,5-a]pyrimidine-3-carboxamide]	0.26 nM			0.21 nM	5.6 nM			0.0283 µM
Cc1ccc(OCCN(C)C2CCN(C(=O)Cn3cc(NC(=O)c4cnn5cccnc45)c(-c4cc(Cl)ccc4OC(F)F)n3)CC2)cc1 [Example 110, N-[3-[5-chloro-2-(difluoromethoxy)phenyl]-1-[2-[4-[methyl-[2-(4-methylphenoxy)ethyl]amino]-1-piperidyl]-2-oxo-ethyl]pyrazol-4-yl]pyrazolo[1,5-a]pyrimidine-3-carboxamide]	1.04 nM			2.03 nM	8.9 nM			0.0875 µM
CN1CCN(C(=O)Cn2cc(NC(=O)c3cnn4cccnc34)c(-c3cc(Cl)ccc3OC(F)F)n2)CC1 [Example 227, Pyrazolo[1,5-a]pyrimidine-3-carboxylic acid {3-(5-chloro-2-difluoromethoxyphenyl)-1-[2-(4-methylpiperazin-1-yl)-2-oxoethyl]-1H-pyrazol-4-yl}amide]	0.55 nM			0.93 nM	3.6 nM			0.0271 µM
CN1CC2CN(C(=O)Cn3cc(NC(=O)c4c(N)nn5cccnc45)c(-c4cc(Cl)ccc4OC(F)F)n3)CC2C1 (stereo not drawn) [Example 9, 2-amino-N-[3-[5-chloro-2-(difluoromethoxy)phenyl]-1-[2-(2-methyl-1,3,3a,4,6,6a-hexahydropyrrolo[3,4-c]pyrrol-5-yl)-2-oxo-ethyl]pyrazol-4-yl]pyrazolo[1,5-a]pyrimidine-3-carboxamide]	0.71 nM			0.28 nM	15.6 nM			0.554 µM

More lines, main results first:

Ki [1]	IV Mouse CL, % of liver blood flow ([2]; single IV dose of 1 mg/kg)	clearance [2, 6]	Ki [3]	EC50 [4]	mouse IV clearance as % of mouse liver blood flow ([2]; single IV dose of 1 mg/kg)	mouse intravenous (IV) clearance value ([2]; single IV dose of 1 mg/kg via the tail vein, plasma)	SMILES	EC50 [5]
0.5 nM	43%	39 mL/min/kg	0.8 nM	3.7 nM			O=C(Nc1cn(CC(=O)N2C[C@H]3CN(CC(F)(F)F)C[C@H]3C2)nc1-c1cc(Cl)ccc1OC(F)F)c1cnn2cccnc12 [Example 59, N-[1-[2-[(3aR,6aS)-2-(2,2,2-trifluoroethyl)-1,3,3a,4,6,6a-hexahydropyrrolo[3,4-c]pyrrol-5-yl]-2-oxo-ethyl]-3-[5-chloro-2-(difluoromethoxy)phenyl]pyrazol-4-yl]pyrazolo[1,5-a]pyrimidine-3-carboxamide]	
0.65 nM			0.62 nM	5.4 nM			O=C(Nc1cn(CC(=O)N2C[C@H]3CN(CC4CCCCC4)C[C@H]3C2)nc1-c1cc(Cl)ccc1OC(F)F)c1cnn2cccnc12 [Example 52, N-[1-[2-[(3aR,6aS)-2-(cyclohexylmethyl)-1,3,3a,4,6,6a-hexahydropyrrolo[3,4-c]pyrrol-5-yl]-2-oxo-ethyl]-3-[5-chloro-2-(difluoromethoxy)phenyl]pyrazol-4-yl]pyrazolo[1,5-a]pyrimidine-3-carboxamide]	0.0388 µM
2.07 nM			2.68 nM	55.8 nM			CN1CC[C@H]2[C@@H](CCN2C(=O)Cn2cc(NC(=O)c3cnn4cccnc34)c(-c3cc(Cl)ccc3OC(F)F)n2)C1 [Example 62, N-[1-[2-[(3aS,7aS)-5-methyl-3,3a,4,6,7,7a-hexahydro-2H-pyrrolo[3,2-c]pyridin-1-yl]-2-oxo-ethyl]-3-[5-chloro-2-(difluoromethoxy)phenyl]pyrazol-4-yl]pyrazolo[1,5-a]pyrimidine-3-carboxamide]	0.0892 µM
0.61 nM			0.32 nM	10.9 nM			N=C(N)CCCn1cc(NC(=O)c2cnn3cccnc23)c(-c2cc(Cl)ccc2OC(F)F)n1 [Example 305, N-[1-(4-amino-4-imino-butyl)-3-[5-chloro-2-(difluoromethoxy)phenyl]pyrazol-4-yl]pyrazolo[1,5-a]pyrimidine-3-carboxamide]	0.0426 µM
1.34 nM			0.47 nM	16.3 nM			CCOC(=O)[C@@H](N)CCn1cc(NC(=O)c2cnn3cccnc23)c(-c2cc(Cl)ccc2OC(F)F)n1 [Example 309, ethyl (2S)-2-amino-4-[3-[5-chloro-2-(difluoromethoxy)phenyl]-4-(pyrazolo[1,5-a]pyrimidine-3-carbonylamino)pyrazol-1-yl]butanoate]	0.049 µM
2.69 nM			2.02 nM	14.6 nM			CN(C)CC1CCN(c2nc(-c3cc(Cl)ccc3OC(F)F)c(NC(=O)c3cnn4cccnc34)s2)CC1 [Example 190, N-[4-[5-chloro-2-(difluoromethoxy)phenyl]-2-[4-[(dimethylamino)methyl]-1-piperidyl]thiazol-5-yl]pyrazolo[1,5-a]pyrimidine-3-carboxamide]	0.0098 µM
1.24 nM			1.07 nM	5.9 nM			CN(CC1(C)COC1)C1CCN(c2nc(-c3cc(Cl)ccc3OC(F)F)c(NC(=O)c3cnn4cccnc34)s2)CC1 [Example 200, N-[4-[5-chloro-2-(difluoromethoxy)phenyl]-2-[4-[methyl-[(3-methyloxetan-3-yl)methyl]amino]-1-piperidyl]thiazol-5-yl]pyrazolo[1,5-a]pyrimidine-3-carboxamide]	0.0254 µM
0.34 nM			0.91 nM	3.2 nM			O=C(Nc1cn(CC(=O)N2CCC(CO)CC2)nc1-c1cc(Cl)ccc1OC(F)F)c1cnn2cccnc12 [Example 274, N-[3-[5-chloro-2-(difluoromethoxy)phenyl]-1-[2-[4-(hydroxymethyl)-1-piperidyl]-2-oxo-ethyl]pyrazol-4-yl]pyrazolo[1,5-a]pyrimidine-3-carboxamide]	0.0131 µM
